From paper PMC3420360 (Bioorganic & medicinal chemistry letters, 2010)

What was measured:
[1] = biological target: T1, rat TRPV1 (Rattus norvegicus, UniProt O35433); experiment: functional 45Ca2+ uptake assay, agonism; type: cell-based; conditions: for functional pattern of agonism/antagonism: 45Ca2+ uptake, rat TRPV1 in CHO cells, result in words; for fold less potent than RTX for functional activity: agonism EC50 versus RTX
[2] = biological target: T1, rat TRPV1; type: cell-based; conditions: Ki(ant) versus 5'-iodo RTX under the same assay conditions

T1 sequence (O35433 whole entry): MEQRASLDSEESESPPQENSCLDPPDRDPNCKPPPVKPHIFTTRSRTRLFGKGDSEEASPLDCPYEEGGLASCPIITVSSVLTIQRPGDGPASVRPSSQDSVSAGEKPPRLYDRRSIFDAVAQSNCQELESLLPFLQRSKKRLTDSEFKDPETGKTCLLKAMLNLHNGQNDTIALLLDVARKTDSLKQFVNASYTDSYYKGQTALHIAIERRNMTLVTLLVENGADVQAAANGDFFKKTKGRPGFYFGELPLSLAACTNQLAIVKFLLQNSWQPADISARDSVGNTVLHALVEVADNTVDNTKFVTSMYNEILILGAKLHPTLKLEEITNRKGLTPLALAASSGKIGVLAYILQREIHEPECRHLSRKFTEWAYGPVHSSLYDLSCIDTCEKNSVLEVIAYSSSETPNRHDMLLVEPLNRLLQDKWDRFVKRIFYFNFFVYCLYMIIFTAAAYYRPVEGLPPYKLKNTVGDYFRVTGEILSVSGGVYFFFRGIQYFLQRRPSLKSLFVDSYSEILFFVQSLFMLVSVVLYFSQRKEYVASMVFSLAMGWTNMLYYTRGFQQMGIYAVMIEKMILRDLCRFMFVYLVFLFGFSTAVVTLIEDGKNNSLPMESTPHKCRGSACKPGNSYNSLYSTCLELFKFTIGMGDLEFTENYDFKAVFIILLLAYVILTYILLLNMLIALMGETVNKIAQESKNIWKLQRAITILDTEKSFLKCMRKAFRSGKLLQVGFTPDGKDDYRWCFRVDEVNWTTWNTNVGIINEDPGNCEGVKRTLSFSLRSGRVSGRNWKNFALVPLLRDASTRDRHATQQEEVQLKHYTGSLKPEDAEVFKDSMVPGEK

| Compound | functional pattern of agonism/antagonism [1] | further results |
| --- | --- | --- |
| C=C(C)[C@@]12C[C@@H](C)C34OC(Cc5ccccc5)(OC1[C@@H]3C=C(COC(=O)Cc1cc(Br)cc(Br)c1)C[C@]1(O)C(=O)C(C)=C[C@@H]41)O2 (some centres unmarked) [compound 35] | full agonist | – |
| C=C(C)[C@@]12C[C@@H](C)C34OC(Cc5ccccc5)(OC1[C@@H]3C=C(COC(=O)Cc1cc(F)c(O)c(OC)c1)C[C@]1(O)C(=O)C(C)=C[C@@H]41)O2 (some centres unmarked) [compound 31] | full agonists | fold less potent than RTX for functional activity [1]: 9 fold |
| C=C(C)[C@@]12C[C@@H](C)C34OC(Cc5ccccc5)(OC1[C@@H]3C=C(COC(=O)Cc1cc(Cl)c(O)c(OC)c1)C[C@]1(O)C(=O)C(C)=C[C@@H]41)O2 (some centres unmarked) [compound 32] | full agonists | fold less potent than RTX for functional activity [1]: 21 fold |
| C=C(C)[C@@]12C[C@@H](C)C34OC(Cc5ccccc5)(OC1[C@@H]3C=C(COC(=O)Cc1cc(Br)c(N)c(OC)c1)C[C@]1(O)C(=O)C(C)=C[C@@H]41)O2 (some centres unmarked) [compound 39, 5-bromo-4-amino RTX] | full antagonist | fold more potent than I-RTX as antagonist [2]: 4 fold |
| C=C(C)[C@@]12C[C@@H](C)C34OC(Cc5ccccc5)(OC1[C@@H]3C=C(COC(=O)Cc1cc(I)c(O)c(OC)c1)C[C@]1(O)C(=O)C(C)=C[C@@H]41)O2 (some centres unmarked) [compound 2, 5-iodo RTX, reference compound] | full antagonist | – |
| C=C(C)[C@@]12C[C@@H](C)C34OC(Cc5ccccc5)(OC1[C@@H]3C=C(COC(=O)Cc1cc(F)c(N)c(OC)c1)C[C@]1(O)C(=O)C(C)=C[C@@H]41)O2 (some centres unmarked) [compound 37] | full agonist | fold less potent than the parent 36 (agonism) ([1]; agonism EC50 versus 4-amino RTX (36)): 2.5 fold |
| C=C(C)[C@@]12C[C@@H](C)C34OC(Cc5ccccc5)(OC1[C@@H]3C=C(COC(=O)Cc1cc(Br)c(O)c(OC)c1)C[C@]1(O)C(=O)C(C)=C[C@@H]41)O2 (some centres unmarked) [compound 33] | partial antagonist | – |
| C=C(C)[C@@]12C[C@@H](C)C34OC(Cc5ccccc5)(OC1[C@@H]3C=C(COC(=O)Cc1ccc(N)c(OC)c1)C[C@]1(O)C(=O)C(C)=C[C@@H]41)O2 (some centres unmarked) [compound 36, 4-amino RTX] | potent full agonism | fold less potent than RTX (Ki and EC50) ([1]; both binding Ki and agonism EC50 compared with RTX): 2–3 fold |
| C=C(C)[C@@]12C[C@@H](C)C34OC(Cc5ccccc5)(OC1[C@@H]3C=C(COC(=O)Cc1cc(Cl)c(N)c(OC)c1)C[C@]1(O)C(=O)C(C)=C[C@@H]41)O2 (some centres unmarked) [compound 38] | partial antagonist | – |
